Measurements reported in PMC6858373 (Scientific Reports, 2019).
“Also recorded” adds a separate entry of the source. Like-named read-outs stand apart in the source and are kept apart here.

Tests used:
[1] = target: full-length P. pyralis luciferase (Photinus pyralis, UniProt P08659, K549A/L550V/N119G/N50D/S548I); format: cell-based
[2] = target: T1, FGF14:Nav1.6 C-tail complex (Homo sapiens, UniProt Q92915+Q9UQD0); assay: Split-luciferase complementation assay (LCA) in Clone V double stable HEK293 cells; format: cell-based; settings: for Split Luciferase Assay Z-score Set 1 / Split Luciferase Assay % Lum Set 1: biological replicate Set 1; for Split Luciferase Assay Z-score Set 1 / Split Luciferase Assay Z-score Set 2: normalized to on-plate 0.3% DMSO controls; for Split Luciferase Assay % Lum Set 1 / Split Luciferase Assay %Lum Set 2: normalized to on-plate 0.3% DMSO controls (n=16 per plate); for Split Luciferase Assay Z-score Set 2 / Split Luciferase Assay %Lum Set 2: biological replicate Set 2; for Split Luciferase Assay %Lum Avg: average of Set 1 and Set 2, normalized to 0.3% DMSO controls; for signal-background (S:B) ratio: 50 ng/mL TNF-α vs 0.3% DMSO, n = 16
T1 construct: polymerase chain reaction (PCR) amplification of the FGF14 open reading frame (nt 1–855); C-terminal fragment of Nav1.6 (amino acids 1763–1976) fused with CD4ΔC-tail (amino acids 1–395); expressed in transfected cells

[3] = CC_NCI screening, normalized to on-plate 0.3% DMSO controls
[4] = CC_NCI screening, full-length luciferase counter-screen luminescence, normalized to on-plate 0.3% DMSO controls
[5] = CC_NCI screening, full-length luciferase counter-screen, normalized to on-plate 0.3% DMSO controls
[6] = CC_NCI screening, LCA luminescence

Sequence of full-length P. pyralis luciferase (P08659 whole entry N50D/N119G/S548I/K549A/L550V, looked up): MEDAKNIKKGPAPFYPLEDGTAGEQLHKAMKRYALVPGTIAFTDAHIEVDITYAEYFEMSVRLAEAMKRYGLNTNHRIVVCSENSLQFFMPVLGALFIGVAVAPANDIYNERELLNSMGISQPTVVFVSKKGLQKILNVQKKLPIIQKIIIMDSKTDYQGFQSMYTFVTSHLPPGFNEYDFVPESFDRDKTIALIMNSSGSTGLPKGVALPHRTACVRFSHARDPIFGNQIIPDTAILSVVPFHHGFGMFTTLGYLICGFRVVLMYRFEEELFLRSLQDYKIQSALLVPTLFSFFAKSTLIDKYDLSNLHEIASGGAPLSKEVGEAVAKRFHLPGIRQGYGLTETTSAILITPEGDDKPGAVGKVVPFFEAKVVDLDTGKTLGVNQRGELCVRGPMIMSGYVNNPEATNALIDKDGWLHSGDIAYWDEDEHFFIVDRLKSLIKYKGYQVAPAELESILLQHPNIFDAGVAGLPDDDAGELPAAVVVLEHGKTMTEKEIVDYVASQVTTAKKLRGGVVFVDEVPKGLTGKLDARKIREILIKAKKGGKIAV
T1 sequence (Q92915 1-252 isoform Q92915-2): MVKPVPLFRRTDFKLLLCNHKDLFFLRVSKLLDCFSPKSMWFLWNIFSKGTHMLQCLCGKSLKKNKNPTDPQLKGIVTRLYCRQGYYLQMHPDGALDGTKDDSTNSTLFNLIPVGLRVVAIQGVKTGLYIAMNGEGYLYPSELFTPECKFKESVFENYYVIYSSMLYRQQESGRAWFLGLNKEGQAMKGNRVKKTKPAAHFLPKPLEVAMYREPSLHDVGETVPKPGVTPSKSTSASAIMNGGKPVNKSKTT
T1 sequence (Q9UQD0 1763-1976 limits assumed): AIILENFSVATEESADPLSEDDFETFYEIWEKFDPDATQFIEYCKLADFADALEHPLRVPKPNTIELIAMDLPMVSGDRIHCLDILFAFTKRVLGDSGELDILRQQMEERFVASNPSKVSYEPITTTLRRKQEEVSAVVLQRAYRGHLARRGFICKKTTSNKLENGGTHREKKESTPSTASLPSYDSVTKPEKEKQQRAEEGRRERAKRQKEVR

Compound | Luciferase Assay % Lum [1, 4] [%] | Luciferase Assay Z-score [1, 5] | Toxicity Assay % Fluor (Clone V cells) [%] | Toxicity Assay Z-score (Clone V cells) | Split Luciferase Assay % Lum Set 1 [2, 6] [%] | Split Luciferase Assay %Lum Set 2 [2, 6] [%] | Split Luciferase Assay Z-score Set 1 ([2]; CC_NCI screening, LCA) | Split Luciferase Assay Z-score Set 2 ([2]; CC_NCI screening, LCA) | Split Luciferase Assay %Lum Avg ([2]; CC_NCI screening) [%] | further results
O=C1NC(=O)c2c1c1c3ccccc3n3c1c1c2c2ccccc2n1C1CCC3O1 [SB 218078] |  |  |  |  |  |  |  |  |  | Luciferase Assay % Lum (full-length luciferase counter-screen) [1, 3]: 92.40%; Luciferase Assay Z-score (full-length luciferase counter-screen) [1, 3]: -0.97; Toxicity Assay % Fluor (CTB cell viability fluorescence) (Clone V cells): 109.07%; Toxicity Assay Z-score (CTB cell viability) (Clone V cells): 1.27; Split Luciferase Assay Z-score Set 1 ([2]; CC_NCI screening): -1.55; Split Luciferase Assay % Lum Set 1 ([2]; CC_NCI screening): 80.77%; Split Luciferase Assay Z-score Set 2 ([2]; CC_NCI screening): -1.79; Split Luciferase Assay %Lum Set 2 ([2]; CC_NCI screening): 78.02%; Split Luciferase Assay %Lum Avg [2]: 79.40%
Cc1ccc(Nc2nccc(N(C)c3ccc4c(C)n(C)nc4c3)n2)cc1S(N)(=O)=O.Cl [Pazopanib hydrochloride] | 59.40 | -5.20 | 92.21 | -1.09 | 13.37 | 28.09 | -7.00 | -5.85 | 20.73 | 
Cc1nc(Nc2ncc(C(=O)Nc3c(C)cccc3Cl)s2)cc(N2CCN(CCO)CC2)n1 [Dasatinib] | 84.22 | -2.02 | 94.47 | -0.77 | 92.73 | 79.06 | -0.59 | -1.70 | 85.90 | 
COc1cc2c(Nc3ccc(NC(=O)c4ccccc4)cc3)ncnc2cc1OCCCN1CCOCC1 [ZM447439] |  |  |  |  |  |  |  |  |  | Luciferase Assay % Lum (full-length luciferase counter-screen) [1, 3]: 98.24%; Luciferase Assay Z-score (full-length luciferase counter-screen) [1, 3]: -0.23; Toxicity Assay % Fluor (CTB cell viability fluorescence) (Clone V cells): 106.45%; Toxicity Assay Z-score (CTB cell viability) (Clone V cells): 0.90; Split Luciferase Assay Z-score Set 1 ([2]; CC_NCI screening): 1.70; Split Luciferase Assay % Lum Set 1 ([2]; CC_NCI screening): 120.99%; Split Luciferase Assay Z-score Set 2 ([2]; CC_NCI screening): -1.70; Split Luciferase Assay %Lum Set 2 ([2]; CC_NCI screening): 79.06%; Split Luciferase Assay %Lum Avg [2]: 100.03%
Fc1ccc(Cl)cc1-c1nc(Nc2ccncc2)c2nccnc2n1 [SD 208] |  |  |  |  |  |  |  |  |  | Luciferase Assay % Lum (full-length luciferase counter-screen) [1, 3]: 88.62%; Luciferase Assay Z-score (full-length luciferase counter-screen) [1, 3]: -1.46; Toxicity Assay % Fluor (CTB cell viability fluorescence) (Clone V cells): 107.60%; Toxicity Assay Z-score (CTB cell viability) (Clone V cells): 1.06; Split Luciferase Assay Z-score Set 2 ([2]; CC_NCI screening): -3.73; Split Luciferase Assay %Lum Set 2 ([2]; CC_NCI screening): 54.10%; Split Luciferase Assay %Lum Avg [2]: 95.16%
N.N.O=C([O-])C1(C(=O)[O-])CCC1.[Pt+2] [Carboplatin] |  |  |  |  |  |  |  |  |  | Luciferase Assay % Lum (full-length luciferase counter-screen) [1, 3]: 96.43%; Luciferase Assay Z-score (full-length luciferase counter-screen) [1, 3]: -0.46; Toxicity Assay % Fluor (CTB cell viability fluorescence) (Clone V cells): 109.23%; Toxicity Assay Z-score (CTB cell viability) (Clone V cells): 1.29; Split Luciferase Assay Z-score Set 1 ([2]; CC_NCI screening): 0.82; Split Luciferase Assay % Lum Set 1 ([2]; CC_NCI screening): 110.12%; Split Luciferase Assay Z-score Set 2 ([2]; CC_NCI screening): 1.17; Split Luciferase Assay %Lum Set 2 ([2]; CC_NCI screening): 114.43%; Split Luciferase Assay %Lum Avg [2]: 112.28%
LE 135 | 97.72 | -0.29 | 98.37 | -0.23 | 44.90 | 74.90 | -4.45 | -2.04 | 59.90 | 
O=C(Nc1cccc(Nc2ncc(Br)c(NCCc3cnc[nH]3)n2)c1)N1CCCC1 [BX 912, reference compound] | 85.82 | -1.82 | 106.22 | 0.87 | 35.11 | 40.57 | -5.24 | -4.84 | 37.84 | Z-score (LCA primary screening) ([2]; 30 µM, 384-well, average of primary screening (n = 2), vs on-plate 0.3% DMSO): −5.04; dose-response behavior of repurchased compounds ([2]; 10-point dose response 0.25-50 µM, Clone V cells): counter acting activity as a function of dosage; also recorded: act as enhancers at lower concentrations; IMin (% Luminescence) ([2]; antagonists, Clone V cells, 384-well, normalized to DMSO): 37.84 % Luminescence; action toward the FGF14:Nav1.6 C-tail interaction ([2]; dose-dependency validation using fresh compound samples): acted as antagonists; IC50 ([2]; estimated, 8-point dose response 0.25-30 µM, n = 4 per concentration, library compounds, read-out: IC50): 9.23 µM; IC50 ([2]; repurchased compounds, 10-point dose response 0.25-50 µM, n = 8 per concentration, Clone V cells, 384-well, read-out: in-cell IC50): 6.8 µM
Cc1cc(N2CCOCC2)cc2[nH]c(-c3c(NC[C@@H](O)c4cccc(Cl)c4)cc[nH]c3=O)nc12 [BMS-536924] | 93.73 | -0.80 | 86.04 | -1.95 | 56.86 | 40.57 | -3.49 | -4.84 | 48.71 | 
CCN(CC)CCNC(=O)c1c(C)[nH]c(/C=C2\C(=O)Nc3ccc(F)cc32)c1C [SUNITINIB] |  |  | 93.10 |  | 80.77 | 74.90 | -1.55 | -2.04 | 77.84 | Luciferase Assay % Lum [1]: 90.75%; Luciferase Assay Z-score [1]: -1.18
CN(C)S(=O)(=O)c1ccc2c(c1)/C(=C/c1cc3c([nH]1)CCCC3)C(=O)N2 [SU 6656] | 101.36 | 0.17 |  |  | 128.60 | 106.11 | 2.31 | 0.50 | 117.36 | Toxicity Assay % Fluor (Clone V cells; human, 16 h, 30 µM): 105.95%; Toxicity Assay Z-score (Clone V cells; human, 16 h, 30 µM): 0.83
CO[C@H]1C[C@@H]2CC[C@@H](C)[C@@](O)(O2)C(=O)C(=O)N2CCCC[C@H]2C(=O)O[C@H]([C@H](C)C[C@@H]2CC[C@@H](OC(=O)C(C)(CO)CO)[C@H](OC)C2)CC(=O)[C@H](C)/C=C(\C)[C@@H](O)[C@@H](OC)C(=O)[C@H](C)C[C@H](C)/C=C/C=C/C=C/1C [Temsirolimus] | 68.61 | -4.02 | 93.12 | -0.96 | 50.33 | 62.42 | -4.01 | -3.06 | 56.38 | 
CO[C@H]1/C=C\C=C(/C)C(=O)NC2=CC(=O)C(NCCN(C)C)=C(C[C@@H](C)C[C@H](OC)[C@H](O)[C@@H](C)/C=C(\C)[C@@H]1OC(N)=O)C2=O [Compound 17-DMAG] | 84.54 | -1.98 | 54.29 | -6.39 | 40.55 | 65.54 | -4.80 | -2.80 | 53.04 | 
O=c1cc(-c2cccc3c2Sc2ccccc2S3)oc(N2CCOCC2)c1 [KU-55933] | 33.90 | -8.46 |  |  | 69.90 | 81.14 | -2.43 | -1.53 | 75.52 | Toxicity Assay % Fluor (Clone V cells; human, 16 h, 30 µM): 89.20%; Toxicity Assay Z-score (Clone V cells; human, 16 h, 30 µM): -1.51
NC1(c2ccc(-c3nc4ccn5c(=O)[nH]nc5c4cc3-c3ccccc3)cc2)CCC1 [MK-2206] | 85.95 | -1.80 |  |  | 48.16 | 47.85 | -4.19 | -4.24 | 48.01 | Toxicity Assay % Fluor (Clone V cells; human, 16 h, 30 µM): 95.56%; Toxicity Assay Z-score (Clone V cells; human, 16 h, 30 µM): -0.62
TNF-α |  |  |  |  |  |  |  |  |  | % maximal luminescence, full-length luciferase (normalized mean and SD) ([1]; TNF-α 50 ng/mL, 96-well plates): 105.7% ± 2.5%; cell viability vs untreated cells (CTB fluorescence) (Clone V cells): no significant difference in cell viability; mean effect relative to that of triciribine [2]: over 2 fold; signal-background (S:B) ratio ([2]; 1 × 10^4 cells per 384-well): 2.05 ± 0.11 X background signal; signal-background (S:B) ratio ([2]; 2 × 10^4 cells per 384-well): 2.26 ± 0.18 X background signal; signal-background (S:B) ratio ([2]; 3 × 10^4 cells per 384-well): 2.60 ± 0.14 X background signal; signal-background (S:B) ratio ([2]; 4 × 10^4 cells per 384-well): 2.12 ± 0.16 X background signal; % luminescence (mean and SD, normalized to DMSO) ([2]; 50 ng/mL TNF-α, Clone V cells, 96-well plates): 210.8% ± 18.6%
